Tested on: cows
Experiment: Abomasal infusion of sorbitol in cows, repeat trial with different cows (Example 3)
Type: in vivo, cow
Conditions: for Fat / Lactose / Non-Protein Nitrogen / Total Solids / True Protein: 100 g/cow/day abomasal, 3 cows
Description: To determine the weight percent total solids, wet basis, in a sample, the actual weight of total solids is determined by analyzing the sample in accordance with Method #925.23 (33.2.09) of Official Methods of Analysis, Association of Official Analytical Chemists (AOAC) (16th Ed., 1995). The weight percent total solids, wet basis, is then calculated by dividing the actual weight of total solids by the actual weight of the sample. The weight percent of true protein, wet basis, for a particular sample is calculated after first determining the wet basis weight percent of total Kjeldahl nitrogen and the wet basis weight percent of non-protein nitrogen in the sample. The wet basis weight percent of total Kjeldahl nitrogen in the sample is determined using the method referenced above. The wet basis weight percent of non-protein nitrogen (NPN) in the sample is determined in accordance with Method #991.21 (33.2.12) of Official Methods of Analysis, Association of Official Analytical Chemists (AOAC) (16th Ed., 1995). The weight percent of true protein, wet basis, in the sample is then determined by subtracting the wet basis weight percent of non-protein nitrogen in the sample from the wet basis weight percent of total Kjeldahl nitrogen in the sample. To determine the weight percent lactose, wet basis, in a liquid sample, the weight of the liquid sample is first determined. The actual weight of lactose in the liquid sample may then be determined using analysis kit number 176-303, that is available from Boehringer-Mannheim of Indianapolis, Ind. in accordance with the procedural instructions included with analysis kit number 176-303. The weight percent lactose, wet basis, in the liquid sample is then calculated by dividing the actual weight of lactose in the liquid sample by the actual weight of the liquid sample. To determine the weight percent fat, wet basis, in a sample, the actual weight of fat in the sample is determined in accordance with Method #974.09 (33.7.18) of Official Methods of Analysis, Association of Official Analytical Chemists (AOAC) (16th Ed., 1995). The weight percent fat, wet basis, is then calculated by dividing the actual weight of fat in the sample by the actual weight of the sample. In this example, sorbitol was abomasally infused into three different cows at a rate of 100 grams of sorbitol per cow per day during a 14 day test period. The sorbitol rations were mixed with water to facilitate infusion. The rations provided to the cows during the period extending from day 0, prior to abomasal infusion of sorbitol, through day 14 of the test period were the same. The only difference in feeding of the cows between day 0 and days 1-14 of the test period were that during days 1-14 the cows were abomasally infused with the dosage of 100 grams of sorbitol per cow per day. Milk from the three cows was collected and analyzed prior to infusion (on day 0) and also was collected and analyzed on the third, seventh and fourteenth day of the test period. The results presented in Table 2 below for each milk component for each particular day are averages for the milk collected from the three different cows. The trial of Example 2 was repeated in Example 3 several months later using three different cows. All of the test conditions described above for Example 2 were repeated in Example 3, with the exception of use of different cows. The results of the second trial are listed in Table 3 below: The net change for the different milk components presented in Table 3 was calculated by averaging the results of days 3, 7 and 14 for a particular milk component and subtracting the results presented for day 0 for the particular milk component. The results of Table 3 illustrate that, on average, the abomasal infusion of sorbitol caused a net increase in the amount of fat and total solids in the milk of the test cattle. […]

[1] = milk, average of days 3, 7, 14 minus day 0

OC[C@@H](O)[C@@H](O)[C@H](O)[C@@H](O)CO [sorbitol]
amount of fat and total solids in the milk (conclusion in words) (abomasal infusion, 14 day test period, on average): net increase
Fat (milk, Day 3): 4.22 Wt %
Lactose (milk, Day 3): 4.80 Wt. %
Non-Protein Nitrogen (milk, Day 3): 0.23 Wt. %
Total Solids (milk, Day 3): 12.95 Wt. %
True Protein (milk, Day 3): 3.21 Wt. %
Fat (milk, Day 7): 3.53 Wt %
Lactose (milk, Day 7): 5.12 Wt. %
Non-Protein Nitrogen (milk, Day 7): 0.27 Wt. %
Total Solids (milk, Day 7): 12.26 Wt. %
True Protein (milk, Day 7): 2.89 Wt. %
Fat (milk, Day 14): 3.81 Wt %
Lactose (milk, Day 14): 5.80 Wt. %
Non-Protein Nitrogen (milk, Day 14): 0.23 Wt. %
Total Solids (milk, Day 14): 12.55 Wt. %
True Protein (milk, Day 14): 3.22 Wt. %
Fat, Net Change [1]: +0.38 Wt %
Lactose, Net Change [1]: +0.39 Wt. %
Non-Protein Nitrogen, Net Change [1]: no net change
Total Solids, Net Change [1]: +0.41 Wt. %
True Protein, Net Change [1]: −0.03 Wt. %
increase of true protein content if the results of day 7 were eliminated from the net change (milk, days 3 and 14 versus day 0): about 0.08 weight percent
